Tested on: 439559-082-T-J2-PDC spheroids viability
Test: Anticancer human tumor 439559-082-T-J2-PDC patient-derived colon adenocarcinoma cell line growth inhibition [GQUAD]
Settings: for IC50: curve of first compound; for viability, T/C: stronger effect = lower value
How it was run: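 Viability of tumor cells grown as complex spheroids with endothelial and stromal cells, exposed to drug combinations. Top concentration at or near clinical Cmax (else 10 microM), diluted in half-log increments.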

[1] = second compound 0.0316 µM, first compound 0.0316 µM
[2] = second compound 0.0316 µM, first compound 0.1 µM
[3] = second compound 0.0316 µM, first compound 0.316 µM
[4] = second compound 0.0316 µM, first compound 1 µM
[5] = second compound 0.0316 µM, first compound 3.16 µM
[6] = second compound 0.0316 µM, first compound 10 µM
[7] = second compound 0.1 µM, first compound 0.0316 µM
[8] = second compound 0.1 µM, first compound 0.1 µM
[9] = second compound 0.1 µM, first compound 0.316 µM
[10] = second compound 0.1 µM, first compound 1 µM
[11] = second compound 0.1 µM, first compound 3.16 µM
[12] = second compound 0.1 µM, first compound 10 µM
[13] = second compound 0.316 µM, first compound 0.0316 µM
[14] = second compound 0.316 µM, first compound 0.1 µM
[15] = second compound 0.316 µM, first compound 0.316 µM
[16] = second compound 0.316 µM, first compound 1 µM
[17] = second compound 0.316 µM, first compound 3.16 µM
[18] = second compound 0.316 µM, first compound 10 µM
[19] = second compound 1 µM, first compound 0.0316 µM
[20] = second compound 1 µM, first compound 0.1 µM
[21] = second compound 1 µM, first compound 0.316 µM
[22] = second compound 1 µM, first compound 1 µM
[23] = second compound 1 µM, first compound 3.16 µM
[24] = second compound 1 µM, first compound 10 µM
[25] = second compound 3.16 µM, first compound 0.0316 µM
[26] = second compound 3.16 µM, first compound 0.1 µM
[27] = second compound 3.16 µM, first compound 0.316 µM
[28] = second compound 3.16 µM, first compound 1 µM
[29] = second compound 3.16 µM, first compound 3.16 µM
[30] = second compound 3.16 µM, first compound 10 µM
[31] = second compound 10 µM, first compound 0.0316 µM
[32] = second compound 10 µM, first compound 0.1 µM
[33] = second compound 10 µM, first compound 0.316 µM
[34] = second compound 10 µM, first compound 1 µM
[35] = second compound 10 µM, first compound 3.16 µM
[36] = second compound 10 µM, first compound 10 µM
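Note: spheroids exposed to the agents for 7 days before readout.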
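Throughout, for viability, T/C: percent of luminescence signal in DMSO vehicle wells taken as 100% viability.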

SMILES: O=c1[nH]cc(F)c(=O)[nH]1 + Cc1cnc(CNC(=O)c2c(=O)c3ccc(N4CCCN(C)CC4)nc3n3c2sc2ccccc23)cn1
- IC50 (second compound 0.0316 µM): > 10 µM
- IC50 (second compound 0.1 µM): > 10 µM
- IC50 (second compound 0.316 µM): > 10 µM
- IC50 (second compound 1 µM): > 10 µM
- IC50 (second compound 3.16 µM): > 10 µM
- IC50 (second compound 10 µM): > 10 µM
- viability, T/C [1]: 100%
- viability, T/C [2]: 102%
- viability, T/C [3]: 87.2%
- viability, T/C [4]: 74.5%
- viability, T/C [5]: 67%
- viability, T/C [6]: 63.6%
- viability, T/C [7]: 91.9%
- viability, T/C [8]: 96.4%
- viability, T/C [9]: 81.2%
- viability, T/C [10]: 72.9%
- viability, T/C [11]: 68.7%
- viability, T/C [12]: 67.4%
- viability, T/C [13]: 88.2%
- viability, T/C [14]: 90%
- viability, T/C [15]: 73.7%
- viability, T/C [16]: 63.5%
- viability, T/C [17]: 66.7%
- viability, T/C [18]: 66%
- viability, T/C [19]: 88.9%
- viability, T/C [20]: 73.6%
- viability, T/C [21]: 62.7%
- viability, T/C [22]: 59.9%
- viability, T/C [23]: 66.4%
- viability, T/C [24]: 65.2%
- viability, T/C [25]: 62.5%
- viability, T/C [26]: 68.3%
- viability, T/C [27]: 63%
- viability, T/C [28]: 58.4%
- viability, T/C [29]: 59.9%
- viability, T/C [30]: 52.7%
- viability, T/C [31]: 68.7%
- viability, T/C [32]: 66.3%
- viability, T/C [33]: 67.8%
- viability, T/C [34]: 57.8%
- viability, T/C [35]: 57.7%
- viability, T/C [36]: 58.3%

SMILES: Cc1[nH]c2ccccc2c1CCNCc1ccc(/C=C/C(=O)NO)cc1 + CN(C)c1ccc(Nc2c3ccc(NC(=O)CCN4CCCC4)cc3nc3cc(NC(=O)CCN4CCCC4)ccc23)cc1
- IC50 (second compound 0.0316 µM): > 0.316 µM
- IC50 (second compound 0.1 µM): > 0.316 µM
- IC50 (second compound 0.316 µM): > 0.316 µM
- IC50 (second compound 1 µM): > 0.316 µM
- IC50 (second compound 3.16 µM): > 0.316 µM
- IC50 (second compound 10 µM): > 0.316 µM
- viability, T/C (second compound 0.0316 µM, first compound 0.000999 µM): 105%
- viability, T/C (second compound 0.0316 µM, first compound 0.00316 µM): 86.9%
- viability, T/C (second compound 0.0316 µM, first compound 0.00999 µM): 91.8%
- viability, T/C [1]: 87.3%
- viability, T/C (second compound 0.0316 µM, first compound 0.0999 µM): 84.7%
- viability, T/C [3]: 63.6%
- viability, T/C (second compound 0.1 µM, first compound 0.000999 µM): 110%
- viability, T/C (second compound 0.1 µM, first compound 0.00316 µM): 102%
- viability, T/C (second compound 0.1 µM, first compound 0.00999 µM): 101%
- viability, T/C [7]: 83.9%
- viability, T/C (second compound 0.1 µM, first compound 0.0999 µM): 83.8%
- viability, T/C [9]: 60.9%
- viability, T/C (second compound 0.316 µM, first compound 0.000999 µM): 93.6%
- viability, T/C (second compound 0.316 µM, first compound 0.00316 µM): 91.3%
- viability, T/C (second compound 0.316 µM, first compound 0.00999 µM): 85.5%
- viability, T/C [13]: 76.4%
- viability, T/C (second compound 0.316 µM, first compound 0.0999 µM): 80%
- viability, T/C [15]: 62.3%
- viability, T/C (second compound 1 µM, first compound 0.000999 µM): 99.1%
- viability, T/C (second compound 1 µM, first compound 0.00316 µM): 99.1%
- viability, T/C (second compound 1 µM, first compound 0.00999 µM): 99.9%
- viability, T/C [19]: 86.9%
- viability, T/C (second compound 1 µM, first compound 0.0999 µM): 78.5%
- viability, T/C [21]: 64.1%
- viability, T/C (second compound 3.16 µM, first compound 0.000999 µM): 93.8%
- viability, T/C (second compound 3.16 µM, first compound 0.00316 µM): 89.4%
- viability, T/C (second compound 3.16 µM, first compound 0.00999 µM): 88.5%
- viability, T/C [25]: 79.2%
- viability, T/C (second compound 3.16 µM, first compound 0.0999 µM): 75.3%
- viability, T/C [27]: 60.8%
- viability, T/C (second compound 10 µM, first compound 0.000999 µM): 96.1%
- viability, T/C (second compound 10 µM, first compound 0.00316 µM): 95.7%
- viability, T/C (second compound 10 µM, first compound 0.00999 µM): 97.9%
- viability, T/C [31]: 84.7%
- viability, T/C (second compound 10 µM, first compound 0.0999 µM): 83%
- viability, T/C [33]: 68.9%

SMILES: C=CC(=O)N1CCN(c2nc(=O)n(-c3c(C)ccnc3C(C)C)c3nc(-c4c(O)cccc4F)c(F)cc23)C(C)C1 (stereo unspecified) + Cc1cnc(CNC(=O)c2c(=O)c3ccc(N4CCCN(C)CC4)nc3n3c2sc2ccccc23)cn1
- IC50 (second compound 0.0316 µM): > 10 µM
- IC50 (second compound 0.1 µM): > 10 µM
- IC50 (second compound 0.316 µM): > 10 µM
- IC50 (second compound 1 µM): > 10 µM
- IC50 (second compound 3.16 µM): > 10 µM
- IC50 (second compound 10 µM): > 10 µM
- viability, T/C [1]: 116%
- viability, T/C [2]: 95.1%
- viability, T/C [3]: 103%
- viability, T/C [4]: 110%
- viability, T/C [5]: 95.6%
- viability, T/C [6]: 111%
- viability, T/C [7]: 99.3%
- viability, T/C [8]: 99.1%
- viability, T/C [9]: 87.3%
- viability, T/C [10]: 87.9%
- viability, T/C [11]: 93%
- viability, T/C [12]: 93.2%
- viability, T/C [13]: 95.2%
- viability, T/C [14]: 92.3%
- viability, T/C [15]: 84.9%
- viability, T/C [16]: 91.2%
- viability, T/C [17]: 91.1%
- viability, T/C [18]: 93%
- viability, T/C [19]: 73.7%
- viability, T/C [20]: 83%
- viability, T/C [21]: 76.1%
- viability, T/C [22]: 75.4%
- viability, T/C [23]: 87.9%
- viability, T/C [24]: 75.9%
- viability, T/C [25]: 76.9%
- viability, T/C [26]: 73%
- viability, T/C [27]: 71.5%
- viability, T/C [28]: 71.1%
- viability, T/C [29]: 78%
- viability, T/C [30]: 72.9%
- viability, T/C [31]: 59.2%
- viability, T/C [32]: 74.7%
- viability, T/C [33]: 75.8%
- viability, T/C [34]: 76.2%
- viability, T/C [35]: 77.1%
- viability, T/C [36]: 72.6%
